Data: patent publication EP4696306A1, “ADENOSINE TRIPHOSPHATE SECRETION INHIBITOR, HEPATIC STELLATE CELL ACTIVATION INHIBITOR, HEPATIC STELLATE CELL DEACTIVATOR, HEPATIC FIBROSIS THERAPEUTIC AGENT, NON-ALCOHOLIC STEATOHEPATITIS THERAPEUTIC AGENT, PSORIASIS THERAPEUTIC AGENT, AND USE OF COMPOUND FOR PRODUCING ADENOSINE TRIPHOSPHATE …” (KURUME UNIVERSITY, priority 2023, dated 2024)

Tests used:
human VNUT = molecular target: T1, human VNUT (Homo sapiens, UniProt Q9BYT1); assay: ATP loading into reconstituted liposomes containing human VNUT; type: biochemical; conditions: 0.1 mM PEP; 30°C, 2 minutes; N = 3
T1 construct: made in house; host or cells: HIGH FIVE insect cells (baculovirus)
T1 sequence (Q9BYT1 1-430 isoform Q9BYT1-2): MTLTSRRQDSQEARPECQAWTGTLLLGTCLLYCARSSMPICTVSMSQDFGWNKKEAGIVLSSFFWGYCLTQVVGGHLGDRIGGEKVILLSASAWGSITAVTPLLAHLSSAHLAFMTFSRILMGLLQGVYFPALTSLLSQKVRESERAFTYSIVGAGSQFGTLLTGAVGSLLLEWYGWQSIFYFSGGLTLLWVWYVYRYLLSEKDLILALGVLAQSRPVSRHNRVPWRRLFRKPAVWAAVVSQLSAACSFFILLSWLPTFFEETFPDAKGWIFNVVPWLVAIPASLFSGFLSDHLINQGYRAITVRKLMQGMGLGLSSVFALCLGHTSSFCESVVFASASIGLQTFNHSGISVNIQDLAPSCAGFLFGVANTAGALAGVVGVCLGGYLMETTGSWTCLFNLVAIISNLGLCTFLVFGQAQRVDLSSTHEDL
Procedure: Human VNUT was prepared according to Reference C (Keisuke Sawada et al., 2008, Identification of a vesicular nucleotide transporter, Proc Natl Acad Sci USA, vol. 105, no. 15, 5683-5686). Insect cells (HIGH FIVE cells) were infected at MOI = 1 with a baculovirus in which a human VNUT expression system was incorporated. HIGH FIVE cells expressing VNUT (1 × 10^8 cells) were collected with a cell scraper, and suspended at about 8 mg/ml in 20 mM Tris-HCl (pH 8.0), 0.1 M potassium acetate, 10% glycerol, 10 µg/ml pepstatin A, and 10 µg/ml leupeptin, followed by homogenization of the cells using an ultrasonic generator (manufactured by Sonics Materials). […]
VNUT (protein, 20 µg) prepared by the above method was mixed with liposomes (lipid weight, 200 µg), and left to stand at -80°C for 30 minutes. […] A major band was detected at a position of about 68 kDa. The proteins after the electrophoresis with the ePAGEL E-T520 2-10% gradient gel (manufactured by Atto) were electrotransferred to a nitrocellulose sheet, and analyzed by Western blotting using an anti-human SLC17A9 (VNUT) rabbit polyclonal antibody (manufactured by Proteintech).
The ATP transport activity of the VNUT-containing reconstituted liposomes prepared by the above method was measured. […]

VNUT = molecular target: T2, VNUT (Homo sapiens, UniProt Q9BYT1); assay: Inhibitory effect on VNUT (data not shown); type: biochemical
T2 sequence (Q9BYT1 1-436): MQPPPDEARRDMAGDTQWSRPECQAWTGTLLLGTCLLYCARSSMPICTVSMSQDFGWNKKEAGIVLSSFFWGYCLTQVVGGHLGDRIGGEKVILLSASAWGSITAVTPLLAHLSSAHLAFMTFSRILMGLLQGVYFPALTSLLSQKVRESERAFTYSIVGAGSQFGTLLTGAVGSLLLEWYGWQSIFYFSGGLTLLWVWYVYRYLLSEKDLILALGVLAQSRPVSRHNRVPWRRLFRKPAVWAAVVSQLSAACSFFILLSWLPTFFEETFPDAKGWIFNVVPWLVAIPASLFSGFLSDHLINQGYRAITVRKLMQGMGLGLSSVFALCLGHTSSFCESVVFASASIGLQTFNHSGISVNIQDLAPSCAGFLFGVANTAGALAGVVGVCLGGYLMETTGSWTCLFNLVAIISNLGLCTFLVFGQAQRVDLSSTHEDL

[1] = system: imiquimod-induced psoriasis relapse; assay: Imiquimod-induced psoriasis relapse model; type: in vivo, mice; conditions: imeglimin 40 mg/kg orally, alternate days Day 8 to 22, then daily from Day 23; compared to IMQ
Procedure: To the left auricle of each mouse, 62.5 mg of 5% imiquimod cream (Beselna Cream 5%) was applied once daily a total of seven times (Days 1 to 7) in accordance with Example 19 to induce imiquimod-induced psoriasis. Thereafter, the imiquimod treatment was interrupted, and imeglimin (40 mg/kg) was orally administered on alternate days for 2 weeks (Day 8 to 22) (IMG). Mice without administration of imeglimin were designated IMQ. On Day 23, the imiquimod treatment was resumed, and 62.5 mg of 5% imiquimod cream (Beselna Cream 5%) was applied once daily a total of […]. In parallel, imeglimin (40 mg/kg) was orally administered daily to IMG.

Structure (SMILES)	ATP loading into liposomes (human VNUT)	inhibitory effect on VNUT (VNUT)	psoriatic symptoms (auricular thickness) after resumed imiquimod treatment [1]
C=C(OP(=O)(O)O)C(=O)O [PEP, phosphoenolpyruvic acid]	strongly inhibited		
C[C@H]1N=C(N(C)C)N=C(N)N1 [imeglimin]		neither imeglimin nor metformin exhibited a strong inhibitory effect	markedly reduced
